US20020004679A1, “Topoisomerase inhibitors for prevention of restenosis” (Quanam Medical Corporation, priority 1998, published 2002)

Test system: coronary arteries of pigs
Experiment: Drug-loaded polymer stent implanted in pig coronary arteries for one month; morphometric analysis of late loss and percent stenosis
Type: in vivo, pig (Domestic Farm Swine)
Details: overall conclusion from the pig coronary artery stent studies
Method: Boundaries of a selected coronary artery segment were detected automatically from optically magnified and video-digitized regions of interest. The catheter used for insertion of the stents was used as a scaling device to determine the dimensions of the artery at the site of implantation. The original vessel diameter at the time of implantation was determined.
The catheter used for insertion of the stents was used as a scaling device to determine the dimensions of the artery at the site of implantation. The original vessel diameter at the time of implantation was determined.

For CC[C@@]1(O)C(=O)OCc2c1cc1n(c2=O)Cc2cc3ccccc3nc2-1 [camptothecin, Camptothecin], the “inhibition of undesirable cell growth associated with vessel injury during coronary angioplasty and stent insertion” value was “effective to inhibit the undesirable cell growth”.
